Source: US8552161B2, “Saponin compounds, methods of preparation thereof, use thereof and pharmaceutical compositions” (Uniwersytet W Bialymstoku, priority 2009, dated 2013)

System: human glioblastoma cell line T98
Assay: Calcein AM cytotoxicity assay, T98
Assay type: cell-based
Conditions: 72 h, means ± SD, three independent experiments in triplicate
Method: Stock solutions (10 mmol/l) of the tested compounds were prepared by dissolving relevant quantity of the substance in DMSO. Dulbecco's modified Eagle's medium (DMEM, RPMI 1640, F-12 medium), fetal bovine serum (FBS), L-glutamine, penicillin, streptomycin were purchased from Sigma (MO, USA). Calcein AM was obtained from Molecular Probes (Invitrogen Corporation, CA, USA).
The screening cell lines (T-lymphoblastic leukaemia cell line CEM, breast carcinoma cell line MCF-7, cervical carcinoma cell line HeLa, human glioblastoma cell line T98, human malignant melanoma G-361, human osteogenic sarcoma cell line HOS, carcinomic human alveolar basal epithelial cells A549, human colon carcinoma cells HCT 116 and human fibroblasts BJ) were obtained from the American Type Culture Collection (Manassas, Va., USA). All cell lines were cultured in DMEM medium (Sigma, Mo., USA). Medium was supplemented with 10% heat-inactivated fetal bovine serum, 2 mmol/l L-glutamine and 1% penicillin-streptomycin. The cell lines were maintained under standard cell culture conditions at 37° C. and 5% CO2 in a humid environment. Cells were subcultured twice or three times a week using the standard trypsinization procedure.
Cytotoxic activities of the novel compounds, obtained according to this invention, were tested in vitro against following cancer cell lines: T-lymphoblastic leukemia cell line CEM; breast carcinoma cell line MCF7, lung carcinoma cell line A549, cervical carcinoma cell line HeLa, malignant melanoma cell line G-361, osteosarcoma cell line HOS, human glioblastoma cell line T98, human colon carcinoma cells HCT 116 and normal human fibroblasts BJ. All cell lines were cultured in DMEM medium (Sigma, Mo., USA) supplemented with 10% fetal calf serum, 2 mM glutamine, 100 U/ml penicillin and 100 μg/ml streptomycin, at 37° C. in a fully humidified atmosphere containing 5% CO2. Suspensions of these lines (ca. 1.0×10^5 cells/ml) were placed in 96-well microtitre plates and after 3 h of stabilization the tested compounds were added in serially diluted concentrations. Saponins were dissolved in dimethylsulfoxide (DMSO) before addition to cultures. Control cultures were treated with DMSO alone. The final concentration of DMSO in the reaction mixtures never exceeded 0.6%. Four-fold dilutions of the intended test concentration were added at time zero in 20 μl aliquots to the microtitre plate wells. Usually, each test compound was evaluated at six 4-fold dilutions and in routine testing; the highest well concentration was 50 μM, although this varied in a few cases, depending on the test compound. After 72 h of culture, the cells were incubated with Calcein AM solution (Molecular Probes) for 1 h. The fluorescence of viable cells was quantified using a Fluoroscan Ascent instrument (Microsystems). The percentage of surviving cells in each well was calculated from the equation […]=(ODdrug exposed well/mean ODcontrol wells)×100%. The IC50 value, the drug concentration lethal to 50% of the tumour cells, was calculated from the obtained dose-response curves.

Structure (SMILES): C/C=C/C(=O)OC[C@@H](C)[C@@]1(O)[C@@H](O[C@@H]2OC[C@H](O)[C@H](O[C@@H]3OC[C@@H](O)[C@H](O)[C@H]3OC(=O)c3ccc(OC)cc3)[C@H]2OC(C)=O)C[C@H]2[C@@H]3CC=C4C[C@@H](O)CC[C@]4(C)[C@H]3CC[C@@]21C [Compound 7, (20R)-21-O-[(E)-but-2-enoyl]-20-methylpregn-5-ene-3β,16β,17α,21-tetraol 16-O-{2-O-(4-methoxybenzoyl)-β-D-xylopyranosyl-(1→3)-2′-O-acetyl-α-L-arabinopyranoside}]
- IC50: 940 ± 20 nM
